In patent US20250066348A1, “SMALL MOLECULE INHIBITORS OF UBIQUITIN SPECIFIC PROTEASE 1 (USP1) AND USES THEREOF” (INSILICO MEDICINE IP LIMITED, priority 2021, published 2025) one finds IC50 data, which are given here for twelve molecules.

The structures appear in SMILES notation.

The target of test [1] is T1, Human recombinant USP1/UAF1 (Homo sapiens, UniProt O94782).
T1 construct: purchased R&D E-568-050; host or cells: baculovirus infected Sf21 cells
Kind of test: Enzymatic assay, USP1/UAF1 with Ubiquitin Rhodamine 110. It counts as biochemical. Conditions: 2 nM USP1/UAF1, 500 nM Ubiquitin Rhodamine 110, HEPES buffer pH 8.0, 15 minutes preincubation at RT. Here is the method:
Human recombinant USP1/UAF1 expressed in baculovirus infected Sf21 cells were used (R&D, E-568-050). Test compound and/or vehicle was incubated with 2 nM of USP1/UAF1 in modified HEPES buffer pH 8.0 for 15 minutes at RT. The reaction was initiated by addition of 500 nM of Ubiquitin Rhodamine 110 (R&D, U-555-050) for kinetic reading. Slope change of fluorescence intensity was read spectrofluorimetrically at 485 nm/535 nm. Dose response of test compounds or reference compound ML-323 was analyzed by nonlinear regression of GraphPad prism software.

Another test relates to MDA-MB-436 cells. Nature of the test: MDA-MB-436 breast cancer cell proliferation assay (CellTiter-Glo). The class given is cell-based. Conditions: Homo sapiens, 168 h, 7 days. Here is the method: MDA-MB-436 cells were grown in Leibovitz's L-15 medium with 10 μg/ml insulin, 16 μg/ml glutathione, 10% FBS. Cells were passaged at subconfluence after trypsinization and maintained in incubators at 37° C. in a humidified atmosphere with 5% CO2.
Cell proliferation was determined using CellTiter-Glo® Luminescent Cell Viability Assay (Promega, #G7573). MDA-MB-436 cells were seeded in 384-well plates and allowed to attach for 24 h. Compounds were added into 384-well plate by ECHO, and incubated at 37 C° in a humidified atmosphere with 5% CO2. After 7 days, CellTiter-Glo was added into 384 well plates, contents were mixed on an orbital shaker at […] for 2 min before centrifuging the plate for 2 min at 1000 rpm. After incubation at RT for 30 min, luminescence was read on envision.

T1 sequence (O94782 whole entry): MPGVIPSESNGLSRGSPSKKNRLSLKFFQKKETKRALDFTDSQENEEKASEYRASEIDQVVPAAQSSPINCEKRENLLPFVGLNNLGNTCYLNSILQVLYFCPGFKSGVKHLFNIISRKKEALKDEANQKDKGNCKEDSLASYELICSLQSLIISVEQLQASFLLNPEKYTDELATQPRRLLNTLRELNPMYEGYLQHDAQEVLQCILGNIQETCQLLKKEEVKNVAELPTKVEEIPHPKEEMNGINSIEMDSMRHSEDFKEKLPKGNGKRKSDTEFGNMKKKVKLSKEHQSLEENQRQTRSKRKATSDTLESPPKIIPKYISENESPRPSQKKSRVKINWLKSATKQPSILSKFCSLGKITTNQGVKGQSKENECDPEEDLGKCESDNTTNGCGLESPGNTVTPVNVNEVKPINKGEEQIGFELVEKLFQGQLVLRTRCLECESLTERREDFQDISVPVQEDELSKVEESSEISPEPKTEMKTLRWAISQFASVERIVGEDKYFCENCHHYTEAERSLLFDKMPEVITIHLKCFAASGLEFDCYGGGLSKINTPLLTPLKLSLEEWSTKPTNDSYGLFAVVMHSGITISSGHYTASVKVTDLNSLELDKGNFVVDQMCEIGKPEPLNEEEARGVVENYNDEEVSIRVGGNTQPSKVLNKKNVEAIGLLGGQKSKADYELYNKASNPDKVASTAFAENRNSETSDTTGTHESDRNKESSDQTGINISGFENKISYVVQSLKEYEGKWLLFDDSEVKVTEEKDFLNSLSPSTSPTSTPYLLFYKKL
T1 sequence (Q8TAF3 whole entry partner): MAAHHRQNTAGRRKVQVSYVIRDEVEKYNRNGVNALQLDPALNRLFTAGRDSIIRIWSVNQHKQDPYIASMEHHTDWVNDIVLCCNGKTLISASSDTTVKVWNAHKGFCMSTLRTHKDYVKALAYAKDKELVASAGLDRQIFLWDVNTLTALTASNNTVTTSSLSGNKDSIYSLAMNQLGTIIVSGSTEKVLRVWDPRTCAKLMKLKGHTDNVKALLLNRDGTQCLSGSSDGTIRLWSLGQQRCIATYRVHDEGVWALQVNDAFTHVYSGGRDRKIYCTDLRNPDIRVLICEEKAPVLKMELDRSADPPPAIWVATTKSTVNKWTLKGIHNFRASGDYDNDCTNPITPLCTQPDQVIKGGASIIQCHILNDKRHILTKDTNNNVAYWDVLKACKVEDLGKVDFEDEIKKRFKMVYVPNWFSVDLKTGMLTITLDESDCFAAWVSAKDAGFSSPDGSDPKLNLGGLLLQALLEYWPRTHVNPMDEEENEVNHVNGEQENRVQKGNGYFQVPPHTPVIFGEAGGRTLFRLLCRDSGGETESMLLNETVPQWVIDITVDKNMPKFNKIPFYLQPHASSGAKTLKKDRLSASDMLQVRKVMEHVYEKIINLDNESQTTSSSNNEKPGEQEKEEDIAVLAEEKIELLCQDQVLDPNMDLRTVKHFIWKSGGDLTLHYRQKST

For `COc1ncnc(C2CC2)c1-c1cc2c(cn1)cnn2Cc1ccc(-n2nc(C(F)(F)F)cc2C)cc1` [Example 1, 6-(4-cyclopropyl-6-methoxypyrimidin-5-yl)-1-(4-(5-methyl-3-(trifluoromethyl)-1H-pyrazol-1-yl)benzyl)-1H-pyrazolo[4,3-c]pyridine], the results for the IC50 (in test [1]; with MDA-MB-436 cells) were less than 50 nM and 50 to 1000 nM, respectively. The like results for `COc1ncnc(C2CC2)c1-c1cn2c(Cc3ccc(-n4nc(C(F)(F)F)cc4C)cc3)ncc2cn1` [Example 2, 6-(4-cyclopropyl-6-methoxypyrimidin-5-yl)-3-(4-(5-methyl-3-(trifluoromethyl)-1H-pyrazol-1-yl)benzyl) imidazo[1,5-a]pyrazine] were, in that order, 50 to 1000 nM and 50 to 1000 nM. In the same order, the values of `COc1ncnc(C2CC2)c1-c1cnc2cnn(Cc3ccc(-n4nc(C(F)(F)F)cc4C)cc3)c2n1` [Example 3, 6-(4-cyclopropyl-6-methoxypyrimidin-5-yl)-1-(4-(5-methyl-3-(trifluoromethyl)-1H-pyrazol-1-yl)benzyl)-1H-pyrazolo[3,4-b]pyrazine] are 1000 to 10000 nM and 1000 to 10000 nM. Take `COc1ncnc(C2CC2)c1-c1cc2c(cnn2Cc2ccc(-n3nc(C(F)(F)F)cc3C)cc2)nn1` [Example 4, 6-(4-cyclopropyl-6-methoxypyrimidin-5-yl)-1-(4-(5-methyl-3-(trifluoromethyl)-1H-pyrazol-1-yl)benzyl)-1H-pyrazolo[4,3-c]pyridazine]: the IC50 in test [1] lay within 1000 to 10000 nM.

In the case of `COc1ncnc(C2CC2)c1-c1cn2c(Cc3ccc(-n4nc(C(F)(F)F)cc4C)cc3)nnc2cn1` [Example 5, 6-(4-cyclopropyl-6-methoxypyrimidin-5-yl)-3-(4-(5-methyl-3-(trifluoromethyl)-1H-pyrazol-1-yl)benzyl)-[1,2,4]triazolo[4,3-a]pyrazine], the IC50 was 1000 to 10000 nM in test [1] and more than 10000 nM in the test on MDA-MB-436 cells. Consider `COc1ncnc(C2CC2)c1-c1cnc2cnc(Cc3ccc(-n4nc(C(F)(F)F)cc4C)cc3)n2c1` [Example 6, 3-(4-cyclopropyl-6-methoxypyrimidin-5-yl)-6-(4-(5-methyl-3-(trifluoromethyl)-1H-pyrazol-1-yl)benzyl)imidazo[1,5-a]pyrimidine], for which the IC50 in test [1] is more than 10000 nM. For the molecule `COc1ncnc(C2CC2)c1-c1ncc2c(=O)n(C)n(Cc3ccc(-n4nc(C(F)(F)F)cc4C)cc3)c2n1` [Example 7, 6-(4-cyclopropyl-6-methoxypyrimidin-5-yl)-2-methyl-1-(4-(5-methyl-3-(trifluoromethyl)-1H-pyrazol-1-yl)benzyl)-1,2-dihydro-3H-pyrazolo[3,4-d]pyrimidin-3-one], the IC50 (in test [1]; in the test with MDA-MB-436 cells) was 50 to 1000 nM each time. On to `COc1ncnc(C2CC2)c1-c1ncc2oc(=O)n(Cc3ccc(-n4nc(C(F)(F)F)cc4C)cc3)c2n1` [Example 8, 5-(4-cyclopropyl-6-methoxypyrimidin-5-yl)-3-(4-(5-methyl-3-(trifluoromethyl)-1H-pyrazol-1-yl)benzyl) oxazolo[4,5-d]pyrimidin-2 (3H)-one], for which the IC50 (in test [1]; in the test on MDA-MB-436 cells) was 50 to 1000 nM throughout. As to `COc1ncnc(C2CC2)c1-c1ncc2[nH]c(=S)n(Cc3ccc(-n4nc(C(F)(F)F)cc4C)cc3)c2n1` [Example 9, 2-(4-cyclopropyl-6-methoxypyrimidin-5-yl)-9-(4-(5-methyl-3-(trifluoromethyl)-1H-pyrazol-1-yl)benzyl)-7,9-dihydro-8H-purine-8-thione], the IC50 (in test [1]; in the test on MDA-MB-436 cells) was 50 to 1000 nM throughout. Consider `COc1ncnc(C2CC2)c1-c1ncc2cnn(CC34C5C6C3C3C4C5C63c3nc(C(F)(F)F)cn3C)c2n1` (stereo not drawn) [Example 10, 6-(4-cyclopropyl-6-methoxypyrimidin-5-yl)-1-((4-(1-methyl-4-(trifluoromethyl)-1H-imidazol-2-yl)cuban-1-yl)methyl)-1H-pyrazolo[3,4-d]pyrimidine], for which the IC50 (in test [1]; in the test on MDA-MB-436 cells) was less than 50 nM throughout. Take `COc1ncnc(C2CC2)c1-c1ncc2cnn(CC34C5C6C3C3C4C5C63c3nc(C(F)(F)F)cn3C(C)C)c2n1` (stereo not drawn) [Example 11, 6-(4-cyclopropyl-6-methoxypyrimidin-5-yl)-1-((4-(1-isopropyl-4-(trifluoromethyl)-1H-imidazol-2-yl)cuban-1-yl)methyl)-1H-pyrazolo[3,4-d]pyrimidine]: the IC50 (in test [1]; with MDA-MB-436 cells) was less than 50 nM each time.

Take `COc1ncnc(C2CC2)c1-c1cc2c(cn1)cnn2Cc1ccc(-n2nc(C(F)(F)F)cc2C)nc1` [Example 12, 6-(4-cyclopropyl-6-methoxypyrimidin-5-yl)-1-((6-(5-methyl-3-(trifluoromethyl)-1H-pyrazol-1-yl)pyridin-3-yl)methyl)-1H-pyrazolo[4,3-c]pyridine]: the IC50 in test [1] was 50 to 1000 nM.
